These results are taken from patent US6794406B2, “Indole derivatives” (Bayer Aktiengesellschaft, priority 2000, dated 2004).

The subject of this assay is luciferase gene under the control of a thyroid hormone-regulated promoter (TRE) in HepG2 hepatocarcinoma cell. Nature of the assay: T3 promoter assay cell test. The assay is classed as cell-based. The note with it: stably transfected human HepG2 cells; luciferase induction; incubated 48 or 72 hours with costimulator retinolic acid; four replicates. As for the experimental part:
The efficacy of the compounds according to the invention can be tested, for example, in vitro by the T3 promoter assay cell test described below:
The test is carried out using a stably transfected, human HepG2 hepatocarcinoma cell which expresses a luciferase gene under the control of a thyroid hormone-regulated promoter. The vector used for the transfection carries, ahead of the luciferase gene, a minimal thymidine kinase promoter having a thyroid hormone-responsive element (TRE), which consists of two inverted palindromes of 12 Bp each and an 8 Bp spacer.
For the test, the cell cultures are inoculated into 96 well plates in Eagle's Minimal Essential Medium with the following additives: glutamine, tricine [N-(tris(hydroxymethyl)methyl)glycine], sodium pyruvate, non-essential amino acids (L-Ala, L-Asn, L-Asp, L-Pro, L-Ser, L-Glu, Gly), insulin, selenium and transferrin. The cultures are grown for 48 hours at 37° C. and under a 10% CO2 atmosphere. Serial dilutions of test substance or reference compound (T3, T4) and costimulator retinolic acid are then added to the test cultures and these are incubated as beforehand for a further 48 or 72 hours. Each substance concentration is tested in four replicates. For the determination of the luciferase induced by T3 or other substances, the cells are then lysed by addition of a Triton- and luciferin-containing buffer (from Promega) and immediately measured luminometrically. The EC50 values of each compound are calculated.

Structures are written as SMILES. pEC50: −log10 of the molar value.

On to `Cc1cc(NCC(=O)O)cc(C)c1Oc1ccc2[nH]cc(C(C)C)c2c1` [Example 5, N-{4-[(3-Isopropyl-1H-indol-5-yl)oxy]-3,5-dimethylphenyl}glycine], for which the negative-log EC50 (pEC50) (in general, −log10 of the EC50, conventionally taken in molar units) is 7.66.

Turning to `Cc1cc(NC(=O)CC(=O)O)cc(Cl)c1Oc1ccc2[nH]cc(C(C)C)c2c1` [Example 6, 3-({3-Chloro-4-[(3-isopropyl-1H-indol-5-yl)oxy]-5-methylphenyl}amino)-3-oxo-propionic acid], the negative logarithm of the EC50 (pEC50) was 8.10.

Compound `CC(C)c1c[nH]c2ccc(Oc3c(C(F)(F)F)cc(CC(=O)O)cc3C(F)(F)F)cc12` [Example 11, 4-(3-Isopropyl-1H-indol-5-yloxy)-3,5-bis-trifluoromethylphenylacetic acid] showed a pEC50 of 9.30.

Regarding `CC(C)c1c[nH]c2ccc(Oc3c(C(F)(F)F)cc(CCC(=O)O)cc3C(F)(F)F)cc12` [Example 15, 4-(3-Isopropyl-1H-indol-5-yloxy)-3,5-bis-trifluoromethylphenylpropionic acid], the negative-log EC50 (pEC50) was 8.40.

Turning to `Cc1cc(OCC(=O)O)cc(C)c1Oc1ccc2[nH]cc(C(C)C)c2c1` [Example 16, {4-[(3-Isopropyl-1H-indol-5-yl)oxy]-3,5-dimethylphenoxy}acetic acid], the negative logarithm of the EC50 (pEC50) is 7.68.
